The structures appear in SMILES notation. In brackets after ≈: the same amount, converted by molar mass. Read-outs that look alike come from different tables or passages of the source. A value given as a limit tells only on which side of the number the result lay.

Experimental findings from US5420276A, “Analogs of oxetanyl purines and pyrimidines” (Abbott Laboratories, priority 1993, dated 1995) are described below.

Data set [1] relates to Herpes simplex type 2 (HSV-2) strain MS. The data set is described as follows: CPE-inhibition assay, herpes simplex type 2 strain MS in Vero cells. The data set is classed as cell-based, herpes simplex virus type 2. To be noted: for VR (Virus Rating): HSV-2 (MS). The procedure:
(§1) The challenge viruses were propagated and assayed in cells that were pregrown as monolayer cultures in plastic tissue culture flasks and 96-well plates, using cell culture media appropriate for the host cell cultures. The following viruses and host cell cultures were employed:
(§2) green monkey kidney (Vero)
(§3) On the day of use, a weighed sample of each compound to be evaluated was dissolved and diluted in serial 10^0.5 dilutions in the culture medium appropriate for each virus-host cell system.
(§4) Mammalian cells were pregrown as monolayers in wells of COSTAR 96-well tissue culture plates using suitable cell culture media. Stock viruses were pretitered according to the method of Reed and Muench (Amer. J. Hyg. 27:493-497, 1938) and diluted in cell culture medium to yield 32 CCID50 (cell culture infectious dose, 50%) units per 0.1 ml. Antiviral assays were designed to test seven concentrations of each compound, from cytotoxic to noncytotoxic levels, in triplicate against each of the challenge viruses in microtiter plate wells containing suitable cell monolayers. To each of the replicate cell cultures were added 0.1 ml of the test drug solution and 0.1 ml of virus suspension. Cell controls containing medium alone, virus controls containing medium and virus, and drug cytotoxicity controls containing medium and each drug concentration were run simultaneously with the test samples assayed in each experiment. […] The cell monolayers were examined microscopically for virus-induced CPE and for drug cytotoxicity.
(§5) Antiviral activity was determined by calculating the degree of inhibition of virus-induced CPE in drug-treated, virus-infected cell cultures by means of a virus rating (VR). The VR is a standard weighted measurement of antiviral activity taking into account both the degree of CPE inhibition and drug cytotoxicity, and is determined by a modification of the method of Ehrlich et al. (Ann. N.Y. Acad. Sci. 130: 5-16, 1965) as described below. CPE was graded for each individual culture in each microtiter plate well according to the following scale:
(§6) 4=100% of the cells affected by virus;
(§7) 3=75% of the cells affected by virus;
(§8) 2=50% of the cells affected by virus;
(§9) 1=25% of the cells affected by virus;
(§10) 0=No CPE; normal cell monolayer.
(§11) The VR was calculated as 0.1 of the sum of the numerical differences between the recorded CPE grade of each test well and that of the corresponding virus control in the culture plate. Numerical differences between the scores of test wells containing a drug concentration which was partially cytotoxic (p) and their corresponding virus controls were halved.
(§12) The minimum inhibitory drug concentration which reduced the cytopathogenic effect (CPE) by 50% (MIC50) was calculated by using a regression analysis program for semilog curve fitting. A therapeutic index (TI) for each active compound for each susceptible virus was determined by dividing the minimum cytotoxic concentration of the test compound by the MIC50.

Data set [2] deals with Herpes simplex type 1 (HSV-1) strain E-377. The data set is described as follows: CPE-inhibition assay, herpes simplex type 1 strain E-377 in Vero cells. The data set is classed as cell-based, herpes simplex virus type 1. To be noted: for VR (Virus Rating): HSV-1 (E-377); for IC50: Human alphaherpesvirus 1, HSV-1 (E-377), minimum drug concentration that inhibited the CPE by 50%, read-out: ID50 (the source's name). Here is the method: as §1, §2, §3, §4, §5, §6, §7, §8, §9, §10, §11, §12

The nature of data set [3]: MTT drug cytotoxicity assay in MRC5 cells. In kind it is cell-based. Conditions: human, read-out: MTT assay Percent of control. Here is the method: Human diploid embryonic lung (MRC5) cells were grown in 35 mm wells of 6-well tissue culture plates. Subconfluent cell monolayers were rinsed with phosphate-buffered saline (PBS) and were exposed to 0.5 ml/well of HCMV (strain AD169) suspension for 1.5 hours at 37° C. The virus suspension was diluted in MEM+2% fetal bovine serum (FBS) to yield a multipicity of infection (MOI) of approximately 0.1 plaque forming units (PFU)/cell. Following the virus adsorption period, the inocula were removed and infected cell layers were rinsed with PBS. Aliquiots (2.0 ml) of each test drug concentration (dissolved in MEM supplemented with 2% FBS) were dispensed into triplicate cell cultures: two virus-infected cultures and one uninfected cytotoxicity control culture (exposed to medium without virus for 1.5 hours). Untreated virus-infected control cultures and untreated, uninfected cell control cultures were fed with medium alone. The culture plates were incubated at 37° C. in a humidified atmosphere of 2% CO2 in air.
All cell culture fluids were replaced with fresh drug and medium 48 hours postinfection (p.i.).
Drug cytotoxicity was determined quantitatively by a method based on the reduction of the tetrazolium salt, 3-(4,5-dimethyl-thiazol-2-yl)-2,5-diphenyl tetrazolium bromide (MTT) by mitochondrial enzymes of viable host cells to MTT formazan (T. Mosmann, 1983). Drug cytotoxicity controls and cell controls were treated with MTT (dissolved in culture medium) followed by 20% SDS (in 0.02N HCl) to dissolve the crystals of MTT formazan. The blue color of the MTT formazan was measured spectrophotometrically at 570 nm. Drug cytotoxicity was determined by comparing the absorbance (O.D.) of each drug cytotoxicity control with the mean O.D. of the cell control cultures and expressed as percent of control.
A general note: Tetrazolium dyes change colour on reduction, which living cells bring about.

A short description of another data set: in vitro. The data set is classed as cell-based, African green monkey. Conditions: monkey, vero cells. The procedure: Vero cell monolayers were harvested by trypsinization. The number of viable cells per ml. was determined by staining an aliquot with trypan blue and counting in a hemocytometer. Cell densities were adjusted in growth medium to contain 4×10^5 cells/mi. 96-well sterile tissue culture plates were seeded with 100 μl/well of the adjusted cell suspensions, i.e., 4×10^4 cells/well. Seeded plates were incubated overnight at 37° C. with CO2.
After overnight incubation, monolayers were approximately confluent. The growth medium was removed and the monolayers in each cell were infected with 100 μl of virus diluted in maintenance medium to produce approximately 90% cytopathogenic effect (CPE) after 2 to 3 days incubation. The virus was allowed to adsorb for 1 hour at 37° C. with 4 to 6% CO2. Controls for cell growth were overlayed with virus-free maintenance medium. The maintenance medium containing residual virus was removed.
The test compounds were dissolved and/or diluted in maintenance medium to the concentration desired for testing and were added to the wells of the plate. Aliquots (100 μl ) of each concentration were added to wells in replicate (duplicate or triplicate). Controls for virus activity were overlayed with drug-free maintenance medium. Replicate wells containing only maintenance medium served as controls for background absorbance levels.
After incubation, the medium was removed from all the wells. 100 μl of neutral red solution was added to each well and the plate was incubated at 37° C. without CO2 for 2 hours. After the 2 hour incubation, the excess neutral red solution was removed. The plates were washed with 100 μl/well of PBS, pH 7.2 and then the PBS was removed.
The neutral red stain taken up by the viable cells was extracted by adding 100 μl/well of acidified methanol, pH 1.0. (The acidified methanol fixed the cells to the well). The plate was allowed to stand at room temperature for at least 15 minutes to allow for maximum extraction. The amount of neutral red stain extracted into the methanol was quantified by determining the absorbance at a wavelength of 540 nm. […]

As to `Nc1ccn([C@@H]2O[C@H](CO)[C@H]2CO)c(=O)n1` [Example 22, 1-([2'R,3'R,4'S]-3',4'-Bis(hydroxymethyl)-2'-oxetanyl)cytosine], the “VR (Virus Rating)” value came to 1.95 in data set [1] and 2.65 in data set [2]. Moreover, the IC50 in data set [1] (Human alphaherpesvirus 2, HSV-2 (MS), minimum drug concentration that inhibited the CPE by 50%, read-out: ID50 (the source's name)) is 1 µg/mL (≈ 4.4 µM); in data set [2], 0.8 µg/mL (≈ 3.52 µM). Also, the viability in data set [3] (0.32 μg/ml) was determined as 84%; in data set [3] (1.0 μg/ml) it was 81%; in data set [3] (3.2 μg/ml), 77%; in data set [3] (10 μg/ml), 78%.

Turning to `O=c1ccn([C@@H]2O[C@H](CO)[C@H]2CO)c(=O)[nH]1` [Example 23, 1-([2'R,3'R,4'S]-3',4'-Bis(hydroxymethyl)-2'-oxetanyl)uracil], the “VR (Virus Rating)” value is 0.5 in data set [1] and 0.6 in data set [2]. The IC50 in data set [2] came to 307 µg/mL (≈ 1340 µM). Also, the viability in data set [3] (10 μg/ml) came out at 100%; in data set [3] (32 μg/ml), 100%; in data set [3] (100 μg/ml), 98%; in data set [3] (320 μg/ml) it was 100%.

Broadly, the CC50 is the concentration that lowers cell viability or growth by half. For `O=c1[nH]c(=O)n([C@@H]2O[C@H](CO)[C@H]2CO)cc1C=CBr` [Example 44, 1-([2'R, 3'R, 4'S]-3',4'-Bis(hydroxymethyl)-2'-oxetanyl)-5-(2-bromo-1-vinyl)uracil], in “in vitro”, the CC50 is greater than 1000 µg/mL.
